Test results published in patent publication US20230092005A1, “COMPOSITIONS AND METHODS FOR TREATING CANCER AND TUMOR” (OBLATO, INC., priority 2020, published 2023).

Test system: human A549 lung cancer xenografts
Assay: Hematoxylin & Eosin (H&E) staining of extracted A549 xenograft tumors (necrosis grading)
Type: in vivo, BALB/c Nude mouse
Conditions: N=10
Description: Histopathological test: The extracted tumors were fixed in 10% neutral buffered formalin solution (10% neutral buffered formalin). After sectioning the tumors to a certain thickness (about 3 mm), those were subjected to the general preparation procedure, embedded in paraffin, cut into 4 to 5 μm size, and tissue sections were stained with Hematoxylin and Eosin (H&E) and TUNEL. IHC (Immunohistochemistry) slides, cut into 4 to 5 μm size, were produced and sent to the sponsor (Negative Control Group (G1), Test substance 2 (G3, Animal ID Nos.: 1301, 1302, 1303, 1307, 1310), Test substance 3 (G4, Animal ID Nos.: 1401, 1402, 1404, 1408, 1409)). Determination of Hematoxylin & Eosin (H&E) staining results: Necrosis of tumors was assessed by grading (±, +, ++, +++, ++++) the extent of necrosis in the whole section of the tumor. Necrosis was evaluated by morphological changes such as collapse or disappearance of the nucleus and eosinophilic change of cytoplasm. The extent of tumor necrosis was determined by the percentage of the following necrosis area. Histopathological test (Table 7, FIGS. 7-11): The extracted fixed tumor was cut to a certain thickness (about 3 mm), then subjected to general tissue treatment, paraffin-embedded to produce blocks, and tissue sections of 4 to 5 μm in size were prepared. Then, Hematoxylin & Eosin (H&E) staining and TUNEL staining were performed.

CC(C)(C)/[N+]([O-])=C/c1ccc(S(=O)(=O)O)cc1S(=O)(=O)O [OKN-007, Disodium 4-[(Z)-[tert-butyl(oxido)azaniumylidene]methyl]benzene-1,3-disulfonate]
Necrosis grade + : number of animals (G2, 150 mg/kg P.O.): 3
Necrosis grade ++ (moderate): number of animals (G2, 150 mg/kg P.O.): 2
Necrosis grade +++ (marked): number of animals (G2, 150 mg/kg P.O.): 0
Necrosis grade ++++ (severe): number of animals (G2, 150 mg/kg P.O.): 0
Necrosis grade ± (minimal): number of animals (G2, 150 mg/kg P.O.): 5
Necrosis grade + : number of animals (G3, 300 mg/kg P.O.): 2
Necrosis grade ++ (moderate): number of animals (G3, 300 mg/kg P.O.): 1
Necrosis grade +++ (marked): number of animals (G3, 300 mg/kg P.O.): 0
Necrosis grade ++++ (severe): number of animals (G3, 300 mg/kg P.O.): 0
Necrosis grade ± (minimal): number of animals (G3, 300 mg/kg P.O.): 7
Necrosis grade + : number of animals (G4, 600 mg/kg P.O.): 2
Necrosis grade ++ (moderate): number of animals (G4, 600 mg/kg P.O.): 2
Necrosis grade +++ (marked): number of animals (G4, 600 mg/kg P.O.): 0
Necrosis grade ++++ (severe): number of animals (G4, 600 mg/kg P.O.): 0
Necrosis grade ± (minimal): number of animals (G4, 600 mg/kg P.O.): 6
